Measured values taken from ChEMBL document CHEMBL4002566, “S-substituted 3,5-dinitrophenyl 1,3,4-oxadiazole-2-thiols and tetrazole-5-thiols as highly efficient antitubercular agents” (Eur J Med Chem, 2017).
Values after ≈ are worked out from the molar mass of the structure shown.

Key:
Type in all cases: functional
Staphylococcus aureus [1] = assay: Antibacterial activity against methicillin-resistant Staphylococcus aureus HK5996/08 after 24 hrs by broth microdilution method; details: HK5996/08, 24 h
[2] = test system: Staphylococcus epidermidis; assay: Antibacterial activity against Staphylococcus epidermidis HK6996/08 after 24 hrs by broth microdilution method; details: HK6996/08, 24 h
Staphylococcus aureus [3] = assay: Antibacterial activity against Staphylococcus aureus ATCC 6538 after 24 hrs by broth microdilution method; details: ATCC 6538, 24 h
Enterococcus sp. = assay: Antibacterial activity against Enterococcus sp. HK14365/08 after 24 hrs by broth microdilution method; details: HK14365/08, 24 h

**Q.** What does the source list for `CN[C@H](CC(C)C)C(=O)N[C@H]1C(=O)N[C@@H](CC(N)=O)C(=O)N[C@H]2C(=O)N[C@H]3C(=O)N[C@H](C(=O)N[C@H](C(=O)O)c4cc(O)cc(O)c4-c4cc3ccc4O)[C@H](O)c3ccc(c(Cl)c3)Oc3cc2cc(c3O[C@@H]2O[C@H](CO)[C@@H](O)[C@H](O)[C@H]2O[C@H]2C[C@](C)(N)[C@H](O)[C@H](C)O2)Oc2ccc(cc2Cl)[C@H]1O` [VANCOMYCIN]?
**A.** MIC (Staphylococcus aureus [1]): 0.35 µM (≈ 0.507 µg/mL); MIC [2]: 0.35 µM (≈ 0.507 µg/mL); MIC (Staphylococcus aureus [3]): 0.35 µM (≈ 0.507 µg/mL); MIC (Enterococcus sp.): 0.7 µM (≈ 1.01 µg/mL)
